From ChEMBL document CHEMBL1157400, “Cytotoxic staurosporines from the marine ascidian Cystodytes solitus” (2008) come the findings set out here.

What all share (assay type): functional
In one assay the test system is HT-29. Description: Cytotoxicity against human HT29 cells after 72 hrs by sulforhodamine B method. As to conditions: HT-29, 72 h. For orientation: The SRB assay estimates cell density from bound dye.
In another assay the test system is MDA-MB-231. The assay is described as follows: Cytotoxicity against human MDA-MB-231 cells after 72 hrs by sulforhodamine B method. To be noted: MDA-MB-231, 72 h.
The subject of a further assay is A549. Description: Cytotoxicity against human A549 cells after 72 hrs by sulforhodamine B method. As to conditions: A549, 72 h.

In the case of `CN[C@@H]1C[C@H]2O[C@@](C)([C@@H]1OC)n1c3ccccc3c3c4c(c5c6ccccc6n2c5c31)C(=O)NC4` [STAUROSPORINE], the results for the 50% growth inhibitory concentration (GI50) in the assay on HT-29, with MDA-MB-231 and with A549 were 10.9 nM, 7.1 nM and 2.4 nM, respectively.

For `CN[C@@H]1C[C@H]2O[C@@](C)([C@@H]1OC)n1c3ccc(O)c(O)c3c3c4c(c5c6cc(O)ccc6n2c5c31)C(=O)NC4=O`, the results for the 50% growth inhibitory concentration (GI50) in the assay on HT-29, in the assay with MDA-MB-231 and with A549 were 68.1 nM, 28.4 nM and 26.6 nM, respectively.

Turning to `CO[C@@H]1[C@H](N)C[C@H]2O[C@]1(C)n1c3ccc(O)c(O)c3c3c4c(c5c6ccccc6n2c5c31)C(=O)NC4=O`, the GI50 is 90.3 nM in the assay with HT-29, 32.1 nM in the assay with MDA-MB-231 and 17.5 nM in the assay with A549.

As usually defined, the GI50 is the concentration at which growth is held to half of that of the control.
